In patent US20220096650A1 (Glaxosmithkline Intellectual Property Development Limited, priority 2019, published 2022):

Tests used:
[1] = tested on: NCI-H929; assay: Immunogenic cell death markers (ATP, HMGB1, CRT) after 48 hour treatment; type: cell-based, human
Excerpt: The process of immunogenic cell death can induce the production of danger molecules that lead to the activation of dendritic cells (see FIG. 1A—ICD is a special type of apoptosis often associated with the cellular release of ATP and HMGB1, and exposure of CRT at the cellular membrane. ICD induces an immune response through engagement of the antigen presentation process by dendritic cells (DCs)). […] Anti-BCMA-MMAF induced ATP release, HMGB1 release and CRT exposure only in NCI-H929, a BCMA positive MM cell line). To investigate the effect of NCI-H929 cell killing by BCMA ADC on the activation of dendritic cells, co-culture experiments were carried out with BCMA ADC treated NCI-H929 cells and immature dendritic cells (iDCs) differentiated from human monocytes in vitro with GM-CSF/IL-4 treatment. A number of dendritic cell maturation markers as well as IL-10 and IL-12p70, two major cytokines secreted by dendritic cells upon activation, were monitored in this process to assess the effect of BCMA ADC induced cell death on dendritic cell activation.

[2] = tested on: NCI-H929 Multiple Myeloma cells; assay: IL-10 in supernatants of NCI-H929 cells cultured alone; type: cell-based, human; conditions: 48 hours, 0.1, 1, 10 μg/mL
Method: Fresh, whole Human blood was obtained from three healthy donors from the Upper Providence Blood Donation Unit with syringes coated in liquid sodium heparin (Sagent 10 IU/mL final concentration). Monocytes were isolated from fresh, whole human blood using the RosetteSep Monocyte Enrichment kit (Cat. #15068) and were assessed for expression of cell surface CD14 (BD Bioscience Cat. #562698) using flow cytometry. Isolated Monocytes (1.5×10^6 cells/well) were cultured in 2 mLs of X-Vivo-15 Media supplemented with 1% autologous plasma, 50 ng/mL recombinant human GM-CSF (R&D, 215-GM-050) and 100 ng/mL recombinant human IL-4 (R&D, 204-IL-050) for 7 Days at 37° C./5% CO2. The cultures received a half media change at Day 3 or 4 while maintaining stimulation factor concentrations. NCI-H929 Multiple Myeloma cells were passaged for 2 passages from thaw at 37° C., 5% CO2, 90% humid air in RPMI-1640 supplemented with 10% FBS. Cells were plated at a density of 7.5×10^5 cells/ml in 2 mLs on 12 well plates. […]
FIG. 3C: IL-10 decreased with BCMA ADC treatment in supernatants from NCI-H929 Multiple Myeloma cells cultured alone. IL-10 was measured in Untreated (a), IgG Control (b), 0.1 (c), 1 (d), and 10 μg/mL BCMA ADC (e) treated (48 hours) NCI-H929 Multiple Myeloma cells.

[3] = tested on: CD4+ and CD8+ T cells; assay: T cell proliferation upon anti-CD3/anti-CD28 stimulation (CFSE); type: cell-based, human; conditions: 96 hours; 3 donors
Method: Fresh normal peripheral blood isolated CD4+ or CD8+ T cells were received and counted using a Beckman Coulter ViCell then centrifuged at 330 g for 7 minutes. Cells were then stained with Molecular Probes Cell Trace CFSE (cat #C34554) proliferation dye (5-10 μM) in PBS/0.5% BSA. Cells were incubated for 5 minutes on ice prior to a further incubation for 5 minutes on ice in cold RPMI 1640/10% FBS. Any free dye was removed by two further cell centrifugations at 300 g for 5 minutes. Cells were resuspended in complete media RPMI 1640/10% FBS/IL-2 (2.8 ng/mL). Cells were then seeded (10^5 cells/100 μL volume/well) in a 96 well tissue culture plates pre-coated with anti-CD3 (1 μg/mL) and anti-CD28 (1 μg/mL). […] After the 4 day incubation, cell supernatant was harvested and frozen at minus 80° C. and the cells were collected for flow cytometry staining. Analyzed using a CANTO II flow cytometer with 488 nm excitation and emission filters appropriate for fluorescein (FITC) for Cell Trace CFSE. FIG. 4D) Effect of BCMA ADC on proliferation of CD4+ and CD8+ T cells. CD4+ and CD8+ T cells stimulated with anti-CD3 and anti-CD28 antibodies in the presence or absence of various concentrations of BCMA ADC. After 96 hours cell proliferation was analyzed by flow cytometry. Data represent mean±SD from 3 different donors.

[4] = tested on: multiple myeloma; assay: Phase 1 clinical trial in relapsed and refractory multiple myeloma patients; type: in vivo, human
Excerpt: Multiple myeloma (MM) is a disease that affects plasma cells and leads to devastating clinical features. MM is the second most common hematological malignancy and remains an incurable disease. Therefore, novel targeted therapies are in need.

[5] = Hallmarks of immunogenic cell death in vivo and in vitro (Example 7)

GSK2857916
HMGB1 release ([1]; cellular supernatant, ELISA, only in NCI-H929): induced
ATP release ([1]; cellular supernatant, luminescence, only in NCI-H929, a BCMA positive MM cell line): induced
CRT exposure ([1]; flow cytometry, only in NCI-H929): induced
IL-10 in supernatants [2]: decreased
proliferation of CD4+ and CD8+ T cells [3]: does not appear to have direct effects
overall response rate [4]: 60%
hallmarks of ICD (cell surface calreticulin and other ER stress response proteins, secretion of HMGB1) [5]: induces hallmarks of ICD
